Where two headings read alike, the source gives them in different places.
Experiments:
[1] = tested on: EPAC2; settings: read-out: EPAC2 inhibitory activity IC50; cited from earlier work
[2] = tested on: EPAC2; settings: read-out: inhibition of cAMP-mediated EPAC2 GEF activity IC50; cited from earlier work
[3] = molecular target: T1, EPAC1 (Homo sapiens, UniProt O95398); settings: at 100 μM; cited from earlier work
T1 sequence (O95398 1-923): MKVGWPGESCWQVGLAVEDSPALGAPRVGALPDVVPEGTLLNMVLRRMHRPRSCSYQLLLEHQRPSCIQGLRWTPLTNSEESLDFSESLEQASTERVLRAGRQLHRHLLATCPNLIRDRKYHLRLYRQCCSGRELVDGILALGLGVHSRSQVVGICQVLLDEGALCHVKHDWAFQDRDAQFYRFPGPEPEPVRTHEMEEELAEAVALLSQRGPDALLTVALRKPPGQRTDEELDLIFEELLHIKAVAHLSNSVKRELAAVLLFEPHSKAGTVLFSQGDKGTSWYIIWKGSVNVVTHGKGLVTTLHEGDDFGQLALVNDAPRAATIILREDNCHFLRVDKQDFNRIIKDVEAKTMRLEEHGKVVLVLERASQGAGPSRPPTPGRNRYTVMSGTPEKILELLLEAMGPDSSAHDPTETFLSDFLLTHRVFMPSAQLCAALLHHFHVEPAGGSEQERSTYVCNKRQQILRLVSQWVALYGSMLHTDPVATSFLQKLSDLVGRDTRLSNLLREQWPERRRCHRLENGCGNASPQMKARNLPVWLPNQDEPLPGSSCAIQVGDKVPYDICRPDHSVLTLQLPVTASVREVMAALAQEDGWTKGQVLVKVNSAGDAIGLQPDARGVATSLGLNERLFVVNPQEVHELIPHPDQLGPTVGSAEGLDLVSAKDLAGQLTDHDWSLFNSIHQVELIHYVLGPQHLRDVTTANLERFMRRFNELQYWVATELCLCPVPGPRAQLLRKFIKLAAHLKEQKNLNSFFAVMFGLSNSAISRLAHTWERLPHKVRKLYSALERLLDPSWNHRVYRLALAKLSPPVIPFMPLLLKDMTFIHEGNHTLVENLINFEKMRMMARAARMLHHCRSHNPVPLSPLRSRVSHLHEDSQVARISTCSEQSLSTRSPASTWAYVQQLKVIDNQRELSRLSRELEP

[4] = molecular target: T1, EPAC1; type: biochemical; settings: for EPAC inhibitory activities (in words): Rap1b-bGDP exchange assay

For Cc1cc(C)c(Nc2ccc(Cl)c(C(F)(F)F)c2)c(C)c1 [Compound 3], the IC50 [1] is listed as 400 nM, the IC50 [2] is listed as 1000 nM and the “inhibition against EPAC1” value [3] is listed as “no significant inhibition”.
For CC(C)(C)c1ccc(C(=O)/C(C#N)=N/Nc2cc(Cl)cc(Cl)c2)cc1 [Compound 10, (E)-2-(4-(tert-Butyl)phenyl)-N-(3,5-dichlorophenyl)-2-oxoacetohydrazonoyl cyanide], the “improvement on EPAC1 inhibitory activity compared to compound 6” value ([4]; ratio of IC50 values vs compound 6) was 2.5 fold.
With N#C/C(=N\Nc1cc(Cl)cc(Cl)c1)C(=O)c1ccc(-c2ccccc2)cc1 [Compound 26] the “EPAC inhibitory activities (in words)” value [4] was “complete loss of EPAC inhibitory activities”.
With COc1ccc(C(=O)/C(C#N)=N/Nc2cc(Cl)cc(Cl)c2)cc1OC [Compound 27] the “EPAC inhibitory activities (in words)” value [4] was “complete loss of EPAC inhibitory activities”.

— article PMC5693616 (Bioorganic & medicinal chemistry letters, 2017)
